Data reported in the supplement of paper PMC10307832.

Experiments:
Test in all cases: relative viability (nuclei count vs DMSO), 5 days (fraction); higher = more cells survive
[1] = compound: O=S(=O)(c1ccccc1)N(CC(F)(F)F)c1ccc(C(O)(C(F)(F)F)C(F)(F)F)cc1 + CCNC(=O)c1noc(-c2cc(C(C)C)c(O)cc2O)c1-c1ccc(CN2CCOCC2)cc1 [Luminespib] (partner 0.01 µM)
Method in brief: (§1)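 Cells from lung cancer lines were seeded into 1536-well plates and, one day later, dosed by pin tool. Treatments were either a single drug or a fixed dose of an anchor drug with five library-drug doses (not always all listed) in √10 steps. After 5 days, nuclei were stained in a one-step fixation (final 0.05% Triton X-100, 1% formaldehyde, 1 ug/ml Hoechst) and counted on 4× images, and relative viability is the treated-to-vehicle nuclei ratio, as the median of duplicate plates.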

[2] = compound: O=S(=O)(c1ccccc1)N(CC(F)(F)F)c1ccc(C(O)(C(F)(F)F)C(F)(F)F)cc1 + CS(=O)(=O)CCNCc1ccc(-c2ccc3ncnc(Nc4ccc(OCc5cccc(F)c5)c(Cl)c4)c3c2)o1 [Lapatinib] (partner 2 µM)
Method in brief: as §1

[3] = compound: O=S(=O)(c1ccccc1)N(CC(F)(F)F)c1ccc(C(O)(C(F)(F)F)C(F)(F)F)cc1 + Nc1ncn([C@H]2C[C@H](O)[C@@H](CO)O2)c(=O)n1 [Decitabine] (partner 2 µM)
Method in brief: as §1

[4] = compound: O=S(=O)(c1ccccc1)N(CC(F)(F)F)c1ccc(C(O)(C(F)(F)F)C(F)(F)F)cc1 + N=C(N)NC(=N)NCCc1ccccc1 [Phenformin] (partner 250 µM)
Method in brief: as §1

RO-3306 + Pictilisib = compound: C1=CC2=C(C=CC(=C2)C=C3C(=O)NC(=NCC4=CC=CS4)S3)N=C1 [RO-3306] + CS(=O)(=O)N1CCN(Cc2cc3nc(-c4cccc5[nH]ncc45)nc(N4CCOCC4)c3s2)CC1 [Pictilisib] (partner 1 µM)
Method in brief: as §1

Cell Line | relative viability ([1]; first compound 0.8 µM) | relative viability ([1]; first compound 2.53 µM) | relative viability ([1]; first compound 8 µM) | relative viability ([2]; first compound 0.8 µM) | relative viability ([2]; first compound 2.53 µM) | relative viability ([2]; first compound 8 µM) | relative viability ([3]; first compound 0.8 µM) | relative viability ([3]; first compound 2.53 µM) | relative viability ([3]; first compound 8 µM) | relative viability ([4]; first compound 0.8 µM) | relative viability ([4]; first compound 2.53 µM) | relative viability ([4]; first compound 8 µM) | relative viability (RO-3306 + Pictilisib; first compound 0.01 µM) | relative viability (RO-3306 + Pictilisib; first compound 0.03162 µM) | relative viability (RO-3306 + Pictilisib; first compound 0.1 µM) | relative viability (RO-3306 + Pictilisib; first compound 0.3162 µM) | relative viability (RO-3306 + Pictilisib; first compound 1 µM)
NCI-H520 | 0.218 | 0.242 | 0.237 | 1.07 | 0.84 | 1.01 | 0.457 | 0.478 | 0.493 | 0.825 | 0.568 | 0.708 | 0.307 | 0.266 | 0.283 | 0.312 | 0.314
NCI-H596 | 1.13 | 0.69 | 0.923 | 0.999 | 0.828 | 0.998 | 1.04 | 0.899 | 1.05 | 0.805 | 0.717 | 0.667 | 0.345 | 0.394 | 0.375 | 0.372 | 0.287
NCI-H647 | 0.275 | 0.19 | 0.233 | 1.52 | 1.17 | 1.2 | 0.502 | 0.437 | 0.353 | 0.502 | 0.552 | 0.455 | 0.326 | 0.464 | 0.401 | 0.454 | 0.299
NCI-H650 | 1.01 | 0.854 | 0.853 | 1.24 | 0.804 | 1.12 | 0.339 | 0.312 | 0.288 | 0.396 | 0.465 | 0.509 | 0.983 | 0.928 | 0.792 | 0.777 | 0.916
NCI-H661 | 0.89 | 0.866 | 0.821 | 0.606 | 0.466 | 0.465 | 0.612 | 0.569 | 0.498 | 0.272 | 0.333 | 0.3 | 0.41 | 0.377 | 0.356 | 0.392 | 0.363
NCI-H727 | 0.389 | 0.292 | 0.358 | 0.844 | 0.646 | 0.738 | 0.922 | 0.963 | 0.913 | 0.568 | 0.378 | 0.469 | 0.355 | 0.356 | 0.438 | 0.319 | 0.41
NCI-H838 | 0.24 | 0.257 | 0.299 | 1.23 | 0.947 | 1.06 | 0.474 | 0.46 | 0.482 | 0.656 | 0.56 | 0.627 | 0.411 | 0.34 | 0.432 | 0.505 | 0.393
NCI-H1355 | 0.781 | 0.756 | 0.759 | 1.04 | 0.961 | 0.926 | 0.354 | 0.382 | 0.342 | 0.467 | 0.397 | 0.438 | 0.423 | 0.396 | 0.493 | 0.512 | 0.316
NCI-H1395 | 0.75 | 0.701 | 0.714 | 1.1 | 0.993 | 1.13 | 0.712 | 0.741 | 0.815 | 0.438 | 0.465 | 0.482 | 0.589 | 0.911 | 0.547 | 0.644 | 0.753
NCI-H1437 | 1.12 | 0.903 | 0.831 | 0.861 | 0.651 | 0.622 | 0.609 | 0.549 | 0.568 | 0.297 | 0.239 | 0.342 | 0.403 | 0.364 | 0.372 | 0.472 | 0.449
NCI-H1650 | 0.184 | 0.2 | 0.231 | 0.871 | 0.735 | 0.723 | 0.463 | 0.454 | 0.465 | 0.347 | 0.366 | 0.384 | 0.491 | 0.503 | 0.48 | 0.583 | 0.414
NCI-H1651 | 0.995 | 0.871 | 0.732 | 0.9 | 0.821 | 0.847 | 0.793 | 0.668 | 0.517 | 0.358 | 0.292 | 0.268 | 0.598 | 0.359 | 0.574 | 0.601 | 0.634
NCI-H1666 | 0.831 | 0.84 | 0.889 | 0.725 | 0.625 | 0.408 | 0.697 | 0.661 | 0.684 | 0.537 | 0.541 | 0.511 | 0.451 | 0.407 | 0.389 | 0.35 | 0.406
NCI-H1734 | 0.191 | 0.217 | 0.204 | 1.24 | 1.13 | 0.934 | 0.524 | 0.477 | 0.477 | 0.562 | 0.45 | 0.354 | 0.53 | 0.435 | 0.468 | 0.452 | 0.447
NCI-H1755 | 0.505 | 0.418 | 0.458 | 1.15 | 0.797 | 1 | 0.781 | 0.765 | 0.829 | 0.638 | 0.614 | 0.569 | 0.523 | 0.376 | 0.424 | 0.457 | 0.473
NCI-H1792 | 0.419 | 0.359 | 0.269 | 0.932 | 0.783 | 0.665 | 0.562 | 0.395 | 0.562 | 0.305 | 0.267 | 0.204 | 0.288 | – | 0.288 | 0.287 | 0.224
NCI-H1793 | 0.162 | 0.149 | 0.172 | 0.675 | 0.471 | 0.522 | 0.262 | 0.384 | 0.4 | 0.447 | 0.332 | 0.285 | 0.402 | 0.276 | 0.34 | 0.258 | 0.389
